Where two headings read alike, the source gives them in different places.
How the values were obtained:
Format in all cases: in vivo
[1] = test system: barnyardgrass (Echinochloa crus-galli); assay: Test B flooded paddy test; settings: Echinochloa crus-galli, 360 h; 250 g ai/ha, Flood; visual rating on scale of 0 to 100 where 0 is no effect and 100 is complete control; 13 to 15 d after treatment; read-out: Plant response rating, Barnyardgrass
Procedure, shortened: (§1)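 Plants grown to the 2-leaf stage. At treatment, pots were flooded to 3 cm above the soil, compound was applied directly to the paddy water, and that depth was held throughout. After 13 to 15 d in the greenhouse, response was rated visually against controls on a 0 (no effect) to 100 (complete control) scale.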

[2] = test system: ducksalad (Heteranthera limosa); assay: Test B flooded paddy test; settings: Heteranthera limosa, 360 h; 250 g ai/ha, Flood; visual rating on scale of 0 to 100 where 0 is no effect and 100 is complete control; 13 to 15 d after treatment; read-out: Plant response rating, Ducksalad
Procedure, shortened: as §1

[3] = test system: rice (Oryza sativa); assay: Test B flooded paddy test; settings: Oryza sativa, 360 h; 250 g ai/ha, Flood; visual rating on scale of 0 to 100 where 0 is no effect and 100 is complete control; 13 to 15 d after treatment; read-out: Plant response rating, Rice
Procedure, shortened: as §1

[4] = test system: sedge, umbrella (small-flower umbrella sedge, Cyperus difformis); assay: Test B flooded paddy test; settings: Cyperus difformis, 360 h; 250 g ai/ha, Flood; visual rating on scale of 0 to 100 where 0 is no effect and 100 is complete control; 13 to 15 d after treatment; read-out: Plant response rating, Sedge, Umbrella
Procedure, shortened: as §1

[5] = test system: foxtail, giant (giant foxtail, Setaria faberii); assay: Test C greenhouse herbicide test, pre- and postemergence
Procedure, shortened: (§2)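 Seeds sown in loam–sand blend treated preemergence; plants in peat-based medium sprayed postemergence at 2–18 cm (1- to 4-leaf stage); chemicals in non-phytotoxic solvent with surfactant. Greenhouse 13–15 d, then visual rating versus controls on 0–100 scale (0 no effect, 100 complete control).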

[6] = test system: galium (catchweed bedstraw, Galium aparine); assay: as above
Procedure, shortened: as §2

[7] = test system: oilseed rape (Brassica napus); assay: as above
Procedure, shortened: as §2

[8] = test system: ryegrass, Italian (Italian ryegrass, Lolium multiflorum); assay: Test A greenhouse herbicide test, pre- and postemergence; settings: Lolium multiflorum, 240 h; for pest or weed control at 125 g/ha: 125 g ai/ha; for pest or weed control at 500 g/ha: 500 g ai/ha, 0 to 100 scale
Procedure, shortened: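 Seeds in loam–sand blend received a preemergence directed soil spray; plants at 2–10 cm, one- to two-leaf stage, received postemergence sprays. Compounds in a non-phytotoxic solvent with surfactant. After about 10 d in a greenhouse, injury rated visually versus untreated controls on a 0–100 scale (100 = complete control).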

[9] = test system: blackgrass (Alopecurus myosuroides); assay: Test A greenhouse herbicide test, postemergence; settings: Alopecurus myosuroides, post-emergence, 240 h; for pest or weed control at 125 g/ha: 125 g ai/ha, visual rating after approx. 10 d, 0 to 100 scale (0 no effect, 100 complete control), read-out: Plant response rating, Blackgrass; for pest or weed control at 500 g/ha: 500 g ai/ha, 0 to 100 scale, 0 is no effect, 100 is complete control, read-out: Blackgrass plant response rating
Procedure, shortened: (§3)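 Visual injury score, 0 (no effect) to 100 (complete control), versus untreated controls roughly 10 d after postemergence spray; plants at one- to two-leaf stage, 2 to 10 cm tall, in loam soil and sand, kept in greenhouse.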

[10] = test system: galium (catchweed bedstraw, Galium aparine); assay: Test A greenhouse herbicide test, postemergence; settings: Galium, post-emergence, 240 h; for pest or weed control at 125 g/ha: 125 g ai/ha, visual rating after approx. 10 d, 0 to 100 scale (0 no effect, 100 complete control), read-out: Plant response rating, Galium; for pest or weed control at 500 g/ha: 500 g ai/ha, 0 to 100 scale, 0 is no effect, 100 is complete control, read-out: Galium plant response rating
Procedure, shortened: as §3

[11] = Postemergence, 31 g ai/ha, 0 to 100 scale (0 no effect, 100 complete control)
[12] = Postemergence, 125 g ai/ha, scale 0 to 100, 0 is no effect, 100 is complete control
[13] = Postemergence, 250 g ai/ha, scale 0 to 100, 0 no effect, 100 complete control, 13 to 15 d
[14] = Preemergence, 31 g ai/ha, scale 0 to 100, 0 is no effect, 100 is complete control
[15] = Preemergence, 62 g ai/ha, scale 0 to 100, 0 is no effect, 100 is complete control
[16] = Preemergence, 125 g ai/ha, scale 0 to 100, 0 is no effect, 100 is complete control
[17] = Preemergence, 250 g ai/ha, scale 0 to 100, 0 no effect, 100 complete control
[18] = postemergence, 62 g ai/ha, scale 0 to 100, 0 no effect, 100 complete control
[19] = post-emergence, Postemergence, visual rating after approx. 10 d, 0 to 100 scale (0 no effect, 100 complete control), read-out: Plant response rating, Ryegrass, Italian
[20] = post-emergence, Postemergence, 0 is no effect, 100 is complete control, read-out: Ryegrass, Italian plant response rating
[21] = pre-emergence, Preemergence, 0 to 100 scale where 0 is no effect and 100 is complete control, read-out: Ryegrass, Italian plant response rating
[22] = pre-emergence, Preemergence, 0 no effect, 100 complete control, read-out: Plant response rating, Ryegrass, Italian

| Structure (SMILES) | pest or weed control at 250 g/ha [1] [%] | pest or weed control at 250 g/ha [2] [%] | plant injury at 250 g/ha [3] [%] | pest or weed control at 250 g/ha [4] [%] | Foxtail, Giant plant response rating [5, 11] | Plant response rating, Foxtail, Giant [5, 12] | Plant response rating, Foxtail, Giant [5, 13] | Plant response rating, Foxtail, Giant [5, 14] | Plant response rating, Foxtail, Giant [5, 15] | Plant response rating, Foxtail, Giant [5, 16] | Foxtail, Giant plant response rating [5, 17] | Foxtail, Giant plant response rating [5, 18] | Galium plant response rating [6, 11] | Plant response rating, Galium [6, 12] | Plant response rating, Galium [6, 13] | Plant response rating, Galium [6, 14] | Plant response rating, Galium [6, 15] | Plant response rating, Galium [6, 16] | Galium plant response rating [6, 17] | Galium plant response rating [6, 18] | also measured |
| --- | --- | --- | --- | --- | --- | --- | --- | --- | --- | --- | --- | --- | --- | --- | --- | --- | --- | --- | --- | --- | --- |
| Cc1cc(C)c2sc(C)c(-c3c(O)c(C)nn(C)c3=O)c2c1 [Compound 2, 5-hydroxy-2,6-dimethyl-4-(2,5,7-trimethylbenzo[b]thien-3-yl)-3(2H)-pyridazinone] | 30 | 80 | 35 | 85 | 20 | 90 | 95 | 80 | 100 | 98 | 100 | 65 | 95 | 98 | 98 | 95 | 100 | 100 | 100 | 95 | Oilseed Rape plant response rating [7, 11]: 65; Plant response rating, Oilseed Rape [7, 12]: 70; Plant response rating, Oilseed Rape [7, 13]: 75; Plant response rating, Oilseed Rape [7, 14]: 0; Plant response rating, Oilseed Rape [7, 15]: 20; Plant response rating, Oilseed Rape [7, 16]: 65; Oilseed Rape plant response rating [7, 17]: 65; Oilseed Rape plant response rating [7, 18]: 70 |
| Cc1ccc2oc(C)c(-c3c(OC(=O)C(C)(C)C)c(C)nn(C)c3=O)c2c1 [Compound 17, 5-(2,5-dimethyl-3-benzofuranyl)-1,6-dihydro-1,3-dimethyl-6-oxo-4-pyridazinyl 2,2-dimethylpropanoate] | 0 | 0 | 0 | 0 | – | – | – | – | – | – | – | – | – | – | – | – | – | – | – | – | pest or weed control at 125 g/ha [8, 19]: 50%; pest or weed control at 500 g/ha [8, 20]: 60%; pest or weed control at 125 g/ha [8, 21]: 10%; pest or weed control at 500 g/ha [8, 22]: 40%; pest or weed control at 125 g/ha [9]: 10%; pest or weed control at 500 g/ha [9]: 40%; pest or weed control at 125 g/ha [10]: 50%; pest or weed control at 500 g/ha [10]: 60% |
| Cc1nn(C)c(=O)c(-c2cccc3ccccc23)c1O [Compound 11, 5-hydroxy-2,6-dimethyl-4-(1-naphthalenyl)-3(2H)-pyridazinone] | 0 | 0 | 0 | 0 | 5 | 10 | 30 | 0 | 35 | 50 | 90 | 5 | 75 | 90 | 90 | 85 | 90 | 90 | 95 | 90 | Oilseed Rape plant response rating [7, 11]: 0; Plant response rating, Oilseed Rape [7, 12]: 0; Plant response rating, Oilseed Rape [7, 13]: 0; Plant response rating, Oilseed Rape [7, 14]: 0; Plant response rating, Oilseed Rape [7, 15]: 0; Plant response rating, Oilseed Rape [7, 16]: 0; Oilseed Rape plant response rating [7, 17]: 0; Oilseed Rape plant response rating [7, 18]: 0 |
| CCc1oc2ccc(C)cc2c1-c1c(O)c(C)nn(C)c1=O [Compound 10, 4-(2-ethyl-5-methyl-3-benzofuranyl)-5-hydroxy-2,6-dimethyl-3(2H)-pyridazinone] | 0 | 30 | 0 | 0 | 70 | 50 | 90 | 0 | 0 | 0 | 0 | 60 | 5 | 70 | 85 | 0 | 5 | 5 | 45 | 50 | Oilseed Rape plant response rating [7, 11]: 0; Plant response rating, Oilseed Rape [7, 12]: 0; Plant response rating, Oilseed Rape [7, 13]: 0; Plant response rating, Oilseed Rape [7, 14]: 0; Plant response rating, Oilseed Rape [7, 15]: 0; Plant response rating, Oilseed Rape [7, 16]: 0; Oilseed Rape plant response rating [7, 17]: 0; Oilseed Rape plant response rating [7, 18]: 0 |
| Cc1cc(C)c2oc(C)c(-c3c(OC(=O)C(C)(C)C)c(C)nn(C)c3=O)c2c1 [Compound 18, 1,6-dihydro-1,3-dimethyl-6-oxo-5-(2,5,7-trimethyl-3-benzofuranyl)-4-pyridazinyl 2,2-dimethylpropanoate] | 0 | 30 | 0 | 0 | – | – | – | – | – | – | – | – | – | – | – | – | – | – | – | – | pest or weed control at 125 g/ha [8, 19]: 10%; pest or weed control at 500 g/ha [8, 20]: 50%; pest or weed control at 125 g/ha [8, 21]: 0%; pest or weed control at 500 g/ha [8, 22]: 20%; pest or weed control at 125 g/ha [9]: 0%; pest or weed control at 500 g/ha [9]: 20%; pest or weed control at 125 g/ha [10]: 40%; pest or weed control at 500 g/ha [10]: 60% |
| Cc1nn(C)c(=O)c(-c2c(C)oc3cccc(C)c23)c1O [Compound 8, 4-(2,4-dimethyl-3-benzofuranyl)-5-hydroxy-2,6-dimethyl-3(2H)-pyridazinone] | 30 | 20 | 0 | 70 | – | – | – | – | – | – | – | – | – | – | – | – | – | – | – | – | – |
